Experimental findings from PubChem BioAssay (NCI) are described below.

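How tested: cells in 96-well plates exposed to compound for 48 hours at five concentrations. Abbreviation: GI50, concentration required for 50% inhibition of growth. Definition used: TGI = concentration required for complete inhibition of growth.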

Some test systems named below: COLO 205 colon; HS 578T breast; KM12 colon; MALME-3M melanoma; NCI-H226 lung; OVCAR-3 ovarian; OVCAR-8 ovarian; SF-268 CNS; SK-MEL-2 melanoma; UACC-257 melanoma.
Common to all, as to assay: inhibition of tumour cell growth, NCI panel, 48 h

Take `CCCCCCCCCCCC1=NC(C)(C)CN1C(C)C`: the GI50 in the assay with COLO 205 colon is 1.77 µM; with HS 578T breast, 2.81 µM; with KM12 colon, 1.94 µM; with MALME-3M melanoma, 1.92 µM; in the assay with NCI-H226 lung, 6.16 µM; in the assay on OVCAR-3 ovarian it was 1.94 µM. For the same compound, the GI50 in the assay with OVCAR-8 ovarian was 4.35 µM; in the assay on SF-268 CNS, 5.51 µM; in the assay on SK-MEL-2 melanoma, 3.2 µM; in the assay on UACC-257 melanoma it was 2.49 µM. The TGI with COLO 205 colon was found to be 3.15 µM; in the assay on HS 578T breast, 13.1 µM; with KM12 colon, 3.96 µM; with MALME-3M melanoma, 4.32 µM; in the assay with NCI-H226 lung, 22 µM; in the assay with OVCAR-3 ovarian it was 6.14 µM. Besides, the TGI with OVCAR-8 ovarian stood at 16.3 µM; in the assay with SF-268 CNS it was 18.2 µM; with SK-MEL-2 melanoma, 10 µM; in the assay on UACC-257 melanoma, 6.02 µM.

As to `C[C@]12CC[C@H]3[C@@H](CCC4=CC(=O)CC[C@@]43C)[C@]1(O)CC[C@]2(O)C(=O)CO`, the TGI with COLO 205 colon, in the assay with HS 578T breast, in the assay on KM12 colon, in the assay with MALME-3M melanoma, in the assay on NCI-H226 lung and in the assay on OVCAR-3 ovarian was above 100 µM in each case. The TGI in the assay with OVCAR-8 ovarian, in the assay with SF-268 CNS, in the assay on SK-MEL-2 melanoma and in the assay with UACC-257 melanoma was above 100 µM in each case.

As for `COc1cc(-c2csc(NC(=O)Nc3ccc(Cl)cc3)n2)cc(OC)c1OC`, the GI50 with COLO 205 colon is 2.52 µM; in the assay with HS 578T breast, 3.58 µM; with KM12 colon, 2.57 µM; with MALME-3M melanoma it was 2.11 µM; with NCI-H226 lung, 3.22 µM; in the assay with OVCAR-3 ovarian, 2.54 µM. Further, the GI50 is 2.46 µM with OVCAR-8 ovarian, 3.28 µM in the assay with SF-268 CNS, 2.18 µM with SK-MEL-2 melanoma and 2.48 µM in the assay on UACC-257 melanoma. Besides, the TGI in the assay with COLO 205 colon amounted to 7.05 µM; with HS 578T breast, 20.3 µM; in the assay on KM12 colon it was 7.9 µM; with MALME-3M melanoma it was 6.32 µM; in the assay with NCI-H226 lung, 10.7 µM; with OVCAR-3 ovarian, 7.23 µM. Moreover, the TGI worked out at 5.85 µM in the assay with OVCAR-8 ovarian, 20.8 µM in the assay with SF-268 CNS, 5.04 µM in the assay on SK-MEL-2 melanoma and 6.03 µM with UACC-257 melanoma.

For `COc1cc2c(cc1OCCCCCOc1ccc(-c3nc4ccccc4s3)cc1)N=C[C@@H]1CCCN1C2=O`, the GI50 was 1.32 µM with COLO 205 colon; 2.02 µM in the assay on HS 578T breast; 4.38 µM with KM12 colon; 12.5 µM in the assay with MALME-3M melanoma; 3.02 µM in the assay on NCI-H226 lung; 1.54 µM in the assay with OVCAR-3 ovarian. The GI50 is 3.13 µM in the assay on OVCAR-8 ovarian, 5.62 µM in the assay with SF-268 CNS, 4.86 µM in the assay on SK-MEL-2 melanoma and 6.61 µM with UACC-257 melanoma. Further, the TGI is 6.53 µM in the assay with COLO 205 colon; 7.68 µM with HS 578T breast; 22.9 µM in the assay on KM12 colon; 37.9 µM in the assay on MALME-3M melanoma; 10.4 µM with NCI-H226 lung; above 44 µM in the assay with OVCAR-3 ovarian. Moreover, the TGI with OVCAR-8 ovarian was determined as 21.1 µM; with SF-268 CNS, 31.6 µM; in the assay on SK-MEL-2 melanoma, 16.2 µM; with UACC-257 melanoma, 21.2 µM.

`CCCN1CCC(Oc2cc(Nc3nc(Nc4cccc(F)c4C(N)=O)c4cc[nH]c4n3)c(OC)cc2Cl)CC1`: the GI50 in the assay with COLO 205 colon was 0.417 µM; in the assay with HS 578T breast, 3.73 µM; in the assay on KM12 colon it was 2.72 µM; with MALME-3M melanoma, 3.81 µM; in the assay with NCI-H226 lung it was 3.64 µM; in the assay with OVCAR-3 ovarian, 4.18 µM. Further, the GI50 was 4.11 µM in the assay on OVCAR-8 ovarian, 3.79 µM in the assay with SF-268 CNS, 4.5 µM with SK-MEL-2 melanoma and 3.28 µM with UACC-257 melanoma. The TGI stood at 0.806 µM in the assay with COLO 205 colon; 10.6 µM in the assay with HS 578T breast; 6.11 µM in the assay with KM12 colon; 8.4 µM in the assay on MALME-3M melanoma; 10.7 µM in the assay on NCI-H226 lung; 7.99 µM in the assay with OVCAR-3 ovarian. Further, the TGI was 9.52 µM in the assay with OVCAR-8 ovarian, 8.32 µM in the assay with SF-268 CNS, 8.32 µM with SK-MEL-2 melanoma and 6.75 µM in the assay with UACC-257 melanoma.

On to `COc1ccc2c(c1)c(-c1ccc(-c3cn(C)c4ccc(OC)cc34)s1)cn2C`, for which the GI50 in the assay with COLO 205 colon, in the assay on HS 578T breast, in the assay on KM12 colon, in the assay with MALME-3M melanoma, with NCI-H226 lung and in the assay on OVCAR-3 ovarian was above 100 µM each time. Also, the GI50 with OVCAR-8 ovarian, in the assay with SF-268 CNS, in the assay on SK-MEL-2 melanoma and in the assay with UACC-257 melanoma was above 100 µM throughout. The TGI in the assay on COLO 205 colon, in the assay with HS 578T breast, with KM12 colon, with MALME-3M melanoma, in the assay with NCI-H226 lung and in the assay on OVCAR-3 ovarian was above 100 µM throughout. In addition, the TGI in the assay on OVCAR-8 ovarian, with SF-268 CNS, in the assay with SK-MEL-2 melanoma and in the assay with UACC-257 melanoma was above 100 µM in each case.

With `O=C(Nc1ccccc1/C=C/c1n[nH]c2ccccc12)c1ccccc1`, the GI50 was 1.71 µM in the assay on COLO 205 colon; 3.64 µM in the assay on HS 578T breast; 0.0648 µM in the assay with KM12 colon; 4.05 µM in the assay on MALME-3M melanoma; 1.09 µM with NCI-H226 lung; 5.26 µM with OVCAR-3 ovarian. Also, the GI50 is 3.95 µM in the assay with OVCAR-8 ovarian, 3.75 µM with SF-268 CNS, 5.03 µM with SK-MEL-2 melanoma and 2.36 µM with UACC-257 melanoma. Further, the TGI with COLO 205 colon was 3.6 µM; in the assay with HS 578T breast, 17.7 µM; in the assay with KM12 colon it was 1.65 µM; in the assay with MALME-3M melanoma it was 12 µM; in the assay with NCI-H226 lung it was 11.5 µM; with OVCAR-3 ovarian, 16.5 µM. Also, the TGI with OVCAR-8 ovarian amounted to 14.6 µM; in the assay with SF-268 CNS, 17.3 µM; with SK-MEL-2 melanoma, 16.5 µM; with UACC-257 melanoma it was 16.5 µM.
